Reference: US4499299A, “Pharmaceutically active phenylcarboxylic acid derivatives” (ICI Americas Inc., priority 1981, dated 1985)

Test system: isolated guinea pig trachea contracted by leukotriene C4 or D4 (SRS-A)
Experiment: Antagonism of leukotriene C4 or D4 induced contractions of isolated guinea pig trachea (SRS-A antagonist test)
Type: cell-based
Details: inhibition of contraction induced by 8×10^-9 M LTD4 or LTC4, isolated guinea pig tracheal strip, indomethacin 5×10^-6 M present
Procedure: Male Hartley guinea pigs weighing 300-500 g are killed and exsanguinated. The trachea is immediately resected, cleaned of adhering connective tissue and cut into a spiral strip measuring approximately 3 to 5 mm ×20 to 25 mm. The strip is mounted in a 10 ml jacketed tissue bath by tying one end to a tissue hook and the opposite end to a Grass FT03C force-displacement transducer connected to an 8-channel Beckman Polygraph for recording contractile or relaxant responses. The tissue is bathed in modified Krebs' solution (37.5° C.) of the following composition (mM): NaCl, 119; KCl, 4.6; CaCl2, 1.8; MgCl2, 0.5; NaHCO3, 24.9; NaH2 PO4, 1.0; glucose, 11.1. Indomethacin, a cyclooxygenase inhibitor, is also present in a concentration of 5×10^-6 M. The tissue baths are constantly aerated with 95% O2 and 5% CO2. Tissues are placed under a passive tension of 2 g and allowed a 50 minute equilibration period before beginning experiments. This technique is standard for studying the effects of drugs on airway smooth muscle (Krell, R. D., J. Pharmacol. Exp. Ther. 211: 436, 1979; Kneussel, M. P. and Richardson, J. B., J. Appl. Physiol. 45: 307, 1978; Fleisch, J. H. and Calkins, P. J., J. Appl. Physiol. 41: 62, 1976).
Tissues are set up in groups of eight--four are used as time/vehicle controls and the remaining four for experimental compounds. No fewer than 4 tissues are used for each test compound. All tissues are exposed to 8×10^-9 M LTD4, following the 50 minute equilibration period, and the response recorded. This concentration of LTD4 is that which produces a contraction equal to about 70-80% of the maximal effect of the agonist in this tissue. The LTD4 is washed out for 20-25 minutes and the procedure repeated twice to insure that reproducible responses are being obtained with LTD4. LTC4, at a concentration of 8×10^-9 M, may be substituted for LTD4 in the same procedure.
Once tissue reproducibility has been established test compounds are added to four baths following the […] washout period. After a 10 minute incubation with test compound or vehicle 8×10^-9 M LT's are added and the response recorded. Percent inhibition by the test compound or percent change in vehicle controls is calculated, for each tissue, according to the following equation: % inhibition=100 multiplied by (mg tension increase of preceding response minus mg tension increase in presence of compound) divided by mg tension increase of preceding response. The means of the percent changes for vehicle controls and test compound are calculated and evaluated for significant differences by Students' t-test for unpaired data. Tissues exposed to agents were retested for responsiveness to LTD4 or C4 following a 25 minute washout period. […]

| SMILES | activity as an SRS-A antagonist |
| --- | --- |
| CCCc1c(OCc2ccc(C(=O)O)cc2OC)ccc(C(C)=O)c1O [Example 4, 3-Methoxy-4-(4-acetyl-3-hydroxy-2-propylphenoxy)methylbenzoic acid] | Particularly active |
| CCCc1c(OCc2ccc(OCC(=O)O)cc2)ccc(C(C)=O)c1O [Example 7, 4-(4-Acetyl-3-hydroxy-2-propylphenoxy)methylphenoxyacetic acid] | Particularly active |
| CCCc1c(OCc2ccc(/C=C/C(=O)O)cc2)ccc(C(C)=O)c1O [Example 16, 4-(4-Acetyl-3-hydroxy-2-propylphenoxy)methylcinnamic acid] | Particularly active |
| CCCc1c(OCc2ccc(C=CC(=O)O)cc2OC)ccc(C(C)=O)c1O [Example 22, 3-Methoxy-4-(4-acetyl-3-hydroxy-2-propylphenoxy)methylcinnamic acid] | Particularly active |
